Key:
[1] = system: SVYDFFVWL (TRP-2 180-188) reactive T cells; assay: T cell activation time course assay, IFNγ production (FACS), TRP-2 epitope; conditions: for % CD8+ T cells producing IFN-γ peptide concentrations in picomolar 24H 0.5 / Geometric mean IFN-γ in arbitrary fluorescence units peptide concentrations in picomolar 24H 0.5 / % CD8+ T cells producing IFN-γ peptide concentrations in picomolar 48H 0.5 / Geometric mean IFN-γ in arbitrary fluorescence units peptide concentrations in picomolar 48H 0.5: peptide 0.5 pM; for % CD8+ T cells producing IFN-γ peptide concentrations in picomolar 24H 50 / Geometric mean IFN-γ in arbitrary fluorescence units peptide concentrations in picomolar 24H 50 / % CD8+ T cells producing IFN-γ peptide concentrations in picomolar 48H 50 / Geometric mean IFN-γ in arbitrary fluorescence units peptide concentrations in picomolar 48H 50: peptide 50 pM; for % CD8+ T cells producing IFN-γ peptide concentrations in picomolar 24H 5·10^3 / Geometric mean IFN-γ in arbitrary fluorescence units peptide concentrations in picomolar 24H 5·10^3 / % CD8+ T cells producing IFN-γ peptide concentrations in picomolar 48H 5·10^3 / Geometric mean IFN-γ in arbitrary fluorescence units peptide concentrations in picomolar 48H 5·10^3: peptide 5·10^3 pM
HLA-A0201 = HLA-A0201 (Homo sapiens, UniProt P04439, D140Y/D185E/D98H/E176V/E277Q/G131W/G231S/I119V/I121R/I166T/I218V/L300P/L318F/N151K/N90K/P208A/P217A/Q86G/Q94H/R138H/R169H/T345S); format: binding

Row | Substance | % CD8+ T cells producing IFN-γ peptide concentrations in picomolar 24H 0.5 [1] [%] | Geometric mean IFN-γ in arbitrary fluorescence units peptide concentrations in picomolar 24H 0.5 [1] | % CD8+ T cells producing IFN-γ peptide concentrations in picomolar 24H 50 [1] [%] | Geometric mean IFN-γ in arbitrary fluorescence units peptide concentrations in picomolar 24H 50 [1] | % CD8+ T cells producing IFN-γ peptide concentrations in picomolar 24H 5·10^3 [1] [%] | Geometric mean IFN-γ in arbitrary fluorescence units peptide concentrations in picomolar 24H 5·10^3 [1] | % CD8+ T cells producing IFN-γ peptide concentrations in picomolar 48H 0.5 [1] [%] | Geometric mean IFN-γ in arbitrary fluorescence units peptide concentrations in picomolar 48H 0.5 [1] | % CD8+ T cells producing IFN-γ peptide concentrations in picomolar 48H 50 [1] [%] | Geometric mean IFN-γ in arbitrary fluorescence units peptide concentrations in picomolar 48H 50 [1] | % CD8+ T cells producing IFN-γ peptide concentrations in picomolar 48H 5·10^3 [1] [%] | Geometric mean IFN-γ in arbitrary fluorescence units peptide concentrations in picomolar 48H 5·10^3 [1] | % inhibition at T=4H and T=24H FP 4h (HLA-A0201) [%] | % inhibition at T=4H and T=24H FP 24h (HLA-A0201) [%] | % inhibition at T=4H and T=24H FP 4H (HLA-A0201) [%] | % inhibition at T=4H and T=24H FP 24H (HLA-A0201) [%]
1 | [CSME][2-AOC]YDFFVW[PRG] | 0 | 67 arbitrary fluorescence units | 1 | 73 arbitrary fluorescence units | 7 | 84 arbitrary fluorescence units | 0 | 67 arbitrary fluorescence units | 0 | 6 arbitrary fluorescence units | 0 | 72 arbitrary fluorescence units | 98 | 89 | – | –
2 | [PHG][CpALA]YDFFVWL | 1 | 71 arbitrary fluorescence units | 12 | 87 arbitrary fluorescence units | 30 | 221 arbitrary fluorescence units | 0 | 70 arbitrary fluorescence units | 6 | – | 34 | 183 arbitrary fluorescence units | 77 | 75 | – | –
3 | [CSME][CpALA]YDFFVW[PRG] | 1 | 69 arbitrary fluorescence units | 5 | 73 arbitrary fluorescence units | 27 | 147 arbitrary fluorescence units | 0 | 58 arbitrary fluorescence units | 1 | 68 arbitrary fluorescence units | 14 | 105 arbitrary fluorescence units | 85 | 83 | – | –
4 | [PHG][2-AOC]YDFFVWL | 0 | 85 arbitrary fluorescence units | 14 | 95 arbitrary fluorescence units | 30 | 224 arbitrary fluorescence units | 1 | 75 arbitrary fluorescence units | 3 | – | 33 | 184 arbitrary fluorescence units | 90 | 75 | – | –
5 | [CSME][2-AOC]YDFFVWL | 1 | 71 arbitrary fluorescence units | 20 | – | 30 | 264 arbitrary fluorescence units | 0 | 68 arbitrary fluorescence units | 5 | – | 33 | 224 arbitrary fluorescence units | 88 | 76 | 88 | 76

From EP2649091B1, “IMMUNE RESTRICTED PEPTIDES WITH INCREASED EFFICACY” (Stichting Het Nederlands Kanker Instituut, priority 2010, dated 2012)
